From patent US20160037782A1, “COMBINATIONS OF ANTIFUNGAL COMPOUNDS AND TEA TREE OIL” (priority 2011, published 2016)

Experiments:
[1] = test system: rust in garlic plants; assay: Control of rust in organically grown garlic plants, field spray trial (Example 2); assay type: in vivo, Puccinia alli; settings: 0.25%
Procedure: Organically grown garlic plants were treated with a 53.8% copper hydroxide solution, Timorex Gold, or a mixture of the two. The plants were sprayed six times, on the first day of the trial and then approximately every six days thereafter. Observations were made on days 1 (before spraying), 29 and 40 of the trial. The results are shown in the table below; d.a.a.=days after application; numbers are presented as % of disease severity on leaves. The effectiveness may have been comprised by the relatively large amount of rain that fell during the trial.
(§1) Treatments were applied in a randomized complete block, with 5 replications per treatment. Plot size in each instance was of 6 m length, containing 20 plants. Fungicidal treatment was applied using backpack sprayer equipped with a mist blower (STHIL 340) to spray a volume of 300 liter/ha. Disease severity was evaluated by determining the leaf area covered with rust (disease severity) on each of 20 leaves randomly selected per each replicate. To analyze the results, an arc-sin transformation was performed on the raw data, and analysis of variance (ANOVA) using the SAS GLM procedure was applied to the transformed data. The Tukey-Kramer Test was applied to determine whether differences between treatments were significant. In the tables, “a”, “b” and “c”, refer to differences in statistical analysis that are familiar to users of the Tukey-Kramer test.

[2] = test system: rust in green onions; assay: Control of rust in organically grown green onions, field spray trial (Example 3); assay type: in vivo, Puccinia alli; settings: 2.5 g/l
Procedure: as §1
In a manner similar to that in Example 2, the effect of TG and the copper hydroxide solution were tested on organically grown green onions, by application at a rate of 500 l/ha.

[3] = test system: coffee plant rust; assay: Coffee plant rust: compositions applied to coffee plant leaves, degree and severity of infection observed later (Example 1); assay type: in vivo, Hemileia vastatrix; settings: applied alone
Procedure: The effect of application of a TTO-containing composition (Timorex Gold®), alone and in combination with tebuconazole (simultaneous and in alternation), on coffee plant rust, was tested, by applying the compositions to coffee plant leaves and observing the degree and severity of infection later.

[4] = 4th evaluation, 1 day after 5th treatment
[5] = 5th evaluation, on day of 7th treatment
[6] = 6th evaluation, 7 days after 7th treatment
[7] = second evaluation, 2 days after second treatment
[8] = third evaluation, on day of fourth treatment

Compound | 40 d.a.a. % green relative to control ([1]; 40 d.a.a.) [%] | 40 d.a.a.: % green ([1]; 40 d.a.a.) [a %] | Day 0 % of infected area ([1]; baseline before spraying) [a %] | Effectiveness in eradicating relative to control ([1]; six days after fifth application) | % of infected area ([1]; six days after fifth application, 300 liter/ha) [b %] | % area infected by rust [2, 4] [b %] | Efficacy of treatment, % [2, 4] [%] | % area infected by rust [2, 5] [b %] | Efficacy of treatment, % [2, 5] [%] | % area infected by rust [2, 6] [b %] | Efficacy of treatment, % [2, 6] [%] | % area infected by rust ([2]; first evaluation, before treatment) [a %] | % area infected by rust [2, 7] [ab %] | Efficacy of treatment, % [2, 7] [%] | % area infected by rust [2, 8] [b %] | Efficacy of treatment, % [2, 8] [%] | retention of leaves by the plants [3] | severity of the disease ([3]; coffee plants)
[Cu+2].[OH-].[OH-] [Copper hydroxide, copper hydroxide] | 206.1 | 60.0 | 0.2 | 53.0 | 27.0 | 8.5 | 70.3 | 12.5 | 76.9 | 18.7 | 75.1 | 0.3 | 1.8 | 62.1 | 2.5 | 79.2 | – | –
CC(C)(C)C(O)(CCc1ccc(Cl)cc1)Cn1cncn1 (stereo not drawn) [tebuconazole] | – | – | – | – | – | – | – | – | – | – | – | – | – | – | – | – | higher retention of leaves | overall lower severity of the disease
